From patent US7205295B2, “Benzoxazin-3-ones and derivatives thereof as therapeutic agents” (Warner-Lambert Company LLC, priority 2002, dated 2007)

Biological target: T1, PI3Kγ (p101/p110γ protein) (Homo sapiens, UniProt P48736)
T1 construct: HA; made in house; host or cells: Spodoptera frugiperda (Sf9) cells, baculovirus co-infection
Experiment: PI3Kγ In Vitro Kinase Assay
Format: biochemical
Settings: purified recombinant p101/p110γ with G protein β1/γ2 subunits; 20 μM ATP, 25 μM PIP2; 20 minutes at room temperature
How it was run: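 Sf9-expressed, purified human p101/p110γ (2.7 nM) was activated by Gβ1/γ2 (57.7 nM) and reacted with 20 μM ATP plus [γ-32P]ATP on PIP2 (25 μM)/PE (300 μM) micelles with 10 mM MgCl2 in HEPES buffer. Reactions ran 20 min at room temperature. Filter-captured radiolabeled PIP3 was counted by scintillation.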

T1 sequence (P48736 whole entry, species assumed): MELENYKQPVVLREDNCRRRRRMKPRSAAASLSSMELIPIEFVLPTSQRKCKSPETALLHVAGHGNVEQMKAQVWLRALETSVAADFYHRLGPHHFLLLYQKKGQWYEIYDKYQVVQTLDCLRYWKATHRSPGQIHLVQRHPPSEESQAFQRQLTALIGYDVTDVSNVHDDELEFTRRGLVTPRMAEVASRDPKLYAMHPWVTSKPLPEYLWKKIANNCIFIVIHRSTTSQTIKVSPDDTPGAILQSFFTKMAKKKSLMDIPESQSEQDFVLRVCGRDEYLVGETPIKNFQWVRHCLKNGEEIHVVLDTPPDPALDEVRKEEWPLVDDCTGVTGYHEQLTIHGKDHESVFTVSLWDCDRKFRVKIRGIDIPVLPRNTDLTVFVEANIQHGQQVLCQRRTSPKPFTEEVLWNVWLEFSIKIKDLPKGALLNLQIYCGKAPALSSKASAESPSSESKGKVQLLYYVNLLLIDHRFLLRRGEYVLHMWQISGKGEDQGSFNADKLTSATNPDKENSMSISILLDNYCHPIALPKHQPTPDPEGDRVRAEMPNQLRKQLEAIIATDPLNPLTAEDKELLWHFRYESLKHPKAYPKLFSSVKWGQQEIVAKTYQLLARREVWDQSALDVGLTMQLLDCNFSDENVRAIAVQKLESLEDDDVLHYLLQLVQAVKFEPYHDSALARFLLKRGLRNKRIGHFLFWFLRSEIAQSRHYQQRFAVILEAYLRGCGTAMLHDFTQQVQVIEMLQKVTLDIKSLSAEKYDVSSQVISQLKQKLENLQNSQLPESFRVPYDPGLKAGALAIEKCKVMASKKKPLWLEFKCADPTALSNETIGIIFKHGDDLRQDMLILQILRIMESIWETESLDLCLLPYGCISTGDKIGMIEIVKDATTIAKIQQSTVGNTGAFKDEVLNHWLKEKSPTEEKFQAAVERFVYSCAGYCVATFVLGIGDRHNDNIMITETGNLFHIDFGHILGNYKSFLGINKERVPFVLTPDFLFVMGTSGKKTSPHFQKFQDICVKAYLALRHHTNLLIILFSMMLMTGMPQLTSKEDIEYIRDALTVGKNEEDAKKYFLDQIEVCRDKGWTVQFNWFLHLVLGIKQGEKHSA
T1 sequence (Q8WYR1 whole entry partner, species assumed): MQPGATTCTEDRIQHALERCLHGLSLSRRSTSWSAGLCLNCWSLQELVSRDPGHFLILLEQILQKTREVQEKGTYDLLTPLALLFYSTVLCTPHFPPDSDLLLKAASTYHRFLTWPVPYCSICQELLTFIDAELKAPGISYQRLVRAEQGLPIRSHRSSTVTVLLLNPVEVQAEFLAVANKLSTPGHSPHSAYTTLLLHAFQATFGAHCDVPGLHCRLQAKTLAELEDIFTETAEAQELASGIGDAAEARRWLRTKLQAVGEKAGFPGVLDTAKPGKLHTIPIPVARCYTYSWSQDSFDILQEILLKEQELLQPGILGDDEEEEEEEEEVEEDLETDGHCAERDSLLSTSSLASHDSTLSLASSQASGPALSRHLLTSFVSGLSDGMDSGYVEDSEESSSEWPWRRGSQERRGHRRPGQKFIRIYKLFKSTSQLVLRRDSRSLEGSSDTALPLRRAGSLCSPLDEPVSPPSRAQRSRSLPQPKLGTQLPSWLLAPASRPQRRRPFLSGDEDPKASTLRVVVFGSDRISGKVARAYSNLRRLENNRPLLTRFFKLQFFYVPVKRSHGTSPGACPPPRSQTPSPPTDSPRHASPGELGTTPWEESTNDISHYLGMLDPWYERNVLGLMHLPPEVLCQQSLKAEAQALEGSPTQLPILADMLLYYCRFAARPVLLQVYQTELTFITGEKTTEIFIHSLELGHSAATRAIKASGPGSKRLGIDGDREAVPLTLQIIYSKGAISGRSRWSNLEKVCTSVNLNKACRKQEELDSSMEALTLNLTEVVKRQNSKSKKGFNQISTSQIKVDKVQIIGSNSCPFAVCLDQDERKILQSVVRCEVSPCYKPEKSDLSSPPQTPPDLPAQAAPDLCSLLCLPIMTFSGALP

Compound	IC50 [µM]
C[C@@H]1Oc2ccc(C=C3SC(=S)NC3=O)cc2N(Cc2cc(C(C)(C)C)cc(C(C)(C)C)c2)C1=O [Example 37, (S)-4-(3,5-Di-tert-butyl-benzyl)-2-methyl-6-(4-oxo-2-thioxo-thiazolidin-5-ylidenemethyl)-4H-1,4-benzoxazin-3-one]	1.62
CC(C)(C)c1cc(CN2C(=O)COc3ccc(C=C4SC(=S)NC4=O)cc32)cc(-c2ccccc2)c1 [Example 65, 4-(5-tert-Butyl-biphenyl-3-ylmethyl)-6-(4-oxo-2-thioxo-thiazolidin-5-ylidenemethyl)-4H-1,4-benzoxazin-3-one]	0.095
Cc1ccc(CN2C(=O)COc3ccc(C=C4SC(=S)NC4=O)cc32)cc1 [Example 140, 4-(4-Methyl-benzyl)-6-(4-oxo-2-thioxo-thiazolidin-5-ylidenemethyl)-4H-benzo[1,4]oxazin-3-one]	0.029
O=C(O)CN1C(=O)C(=Cc2ccc3c(c2)NC(=O)CO3)SC1=S [Example 10, [4-Oxo-5-(3-oxo-3,4-dihydro-2H-1,4-benzoxazin-6-ylmethylene)-2-thioxo-thiazolidin-3-yl]-acetic acid; compound with trifluoro-acetic acid]	3.63
COc1cc(C=C2SC(=S)NC2=O)cc2c1OCC(=O)N2Cc1ccccc1 [Example 153, 4-Benzyl-8-methoxy-6-(4-oxo-2-thioxo-thiazolidin-5-ylidenemethyl)-4H-benzo[1,4]oxazin-3-one]	0.096
O=C1NC(=S)SC1=Cc1ccc2c(c1)N(Cc1cc(OS(=O)(=O)C(F)(F)F)cc(OS(=O)(=O)C(F)(F)F)c1)C(=O)CO2 [Example 44, Trifluoro-methanesulfonic acid 3-[3-oxo-6-(4-oxo-2-thioxo-thiazolidin-5-ylidenemethyl)-2,3-dihydro-1,4-benzoxazin-4-ylmethyl]-5-trifluoromethanesulfonyloxy-phenyl ester]	0.265
O=C1NC(=S)SC1=Cc1ccc2c(c1)N(Cc1ccc(CN3CCC4(CCCCC4)CC3)cc1)C(=O)CO2 [Example 238, 4-[4-(3-Aza-spiro[5.5]undec-3-ylmethyl)-benzyl]-6-(4-oxo-2-thioxo-thiazolidin-5-ylidenemethyl)-4H-benzo[1,4]oxazin-3-one]	0.036
CN1CCN(Cc2cccc(CN3C(=O)COc4ccc(C=C5SC(=S)NC5=O)cc43)c2)CC1 [Example 48, 4-[3-(4-Methyl-piperazin-1-ylmethyl)-benzyl]-6-(4-oxo-2-thioxo-thiazolidin-5-ylidenemethyl)-4H-1,4-benzoxazin-3-one]	0.042
CC(C)(C)c1cc(CN2C(=O)COc3ccc(C=C4SC(=O)NC4=O)cc32)cc(C(C)(C)C)n1 [Example 66, 5-[4-(2,6-Di-tert-butyl-pyridin-4-ylmethyl)-3-oxo-3,4-dihydro-2H-1,4-benzoxazin-6-ylmethylene]-thiazolidine-2,4-dione]	0.257
NC(=O)CN1C(=O)COc2ccc(C=C3SC(=S)NC3=O)cc21 [Example 141, 2-[3-Oxo-6-(4-oxo-2-thioxo-thiazolidin-5-ylidenemethyl)-2,3-dihydrobenzo[1,4]oxazin-4-yl]-acetamide]	0.86
Cc1cc(C=C2SC(=O)NC2=O)cc2c1OCC(=O)N2Cc1cc(C(C)(C)C)nc(C(C)(C)C)c1 [Example 224, 5-[4-(2,6-Di-tert-butyl-pyridin-4-ylmethyl)-8-methyl-3-oxo-3,4-dihydro-2H-1,4-benzoxazin-6-ylmethylene]-thiazolidine-2,4-dione]	0.255
COC(=O)c1cc(CN2C(=O)COc3ccc(C=C4SC(=S)NC4=O)cc32)cc(C(C)(C)C)c1 [Example 57, 3-tert-Butyl-5-[3-oxo-6-(4-oxo-2-thioxo-thiazolidin-5-ylidenemethyl)-2,3-dihydro-1,4-benzoxazin-4-ylmethyl]-benzoic acid methyl ester]	0.029
O=C1NC(=S)SC1=Cc1ccc2c(c1)N(Cc1cccc(S(=O)(=O)N3CCOCC3)c1)C(=O)CO2 [Example 257, 4-[3-(Morpholine-4-sulfonyl)-benzyl]-6-(4-oxo-2-thioxo-thiazolidin-5-ylidenemethyl)-4H-1,4-benzoxazin-3-one]	0.028
CC(C)(C)C1CC(CN2C(=O)COc3ccc(C=C4SC(=S)NC4=O)cc32)CC(C(C)(C)C)C1 (stereo not drawn) [Example 250, 4-(3,5-Di-tert-butyl-cyclohexylmethyl)-6-(4-oxo-2-thioxo-thiazolidin-5-ylidenemethyl)-4H-1,4-benzoxazin-3-one]	0.175
CCc1cc(CN2C(=O)COc3ccc(C=C4SC(=S)NC4=O)cc32)cc(C(C)(C)C)c1 [Example 63, 4-(3-tert-Butyl-5-ethyl-benzyl)-6-(4-oxo-2-thioxo-thiazolidin-5-ylidenemethyl)-4H-1,4-benzoxazin-3-one]	0.049
C[C@@H]1Oc2ccc(C=C3SC(=S)NC3=O)cc2N(CCc2ccc(Cl)c(Cl)c2)C1=O [Example 109, (S)-4-[2-(3,4-Dichloro-phenyl)-ethyl]-2-methyl-6-(4-oxo-2-thioxo-thiazolidin-5-ylidenmethyl)-4H-benzo[1,4]oxazin-3-one]	0.33
8-Fluoro-4-(3-morpholin-4-yl-propyl)-6-(4-oxo-2-thioxo-thiazolidin-5-ylidenemethyl)-4H-benzo[1,4]oxazin-3-one [Example 242]	0.055

Now those with a lower IC50, led by results:

IC50 [µM]	Compound
0.025	Cc1cc(CN2C(=O)COc3c(F)cc(C=C4SC(=S)NC4=O)cc32)c(C)o1 [Example 318, 4-(2,5-Dimethyl-furan-3-ylmethyl)-8-fluoro-6-(4-oxo-2-thioxo-thiazolidin-5-ylidenemethyl)-4H-benzo[1,4]oxazin-3-one]
0.025	CC(=O)Nc1ccc(CN2C(=O)COc3ccc(C=C4SC(=S)NC4=O)cc32)cc1 [Example 177, N-{4-[3-Oxo-6-(4-oxo-2-thioxo-thiazolidin-5-ylidenemethyl)-2,3-dihydro-1,4-benzoxazin-4-ylmethyl]-phenyl}-acetamide]
0.017	CC(=O)OCc1ccccc1CN1C(=O)COc2ccc(C=C3SC(=S)NC3=O)cc21 [Example 22, Acetic acid 2-[3-oxo-6-(4-oxo-2-thioxo-thiazolidin-5-ylidenemethyl)-2,3-dihydro-1,4-benzoxazin-4-ylmethyl]-benzyl ester]
0.015	O=C1NC(=S)SC1=Cc1ccc2c(c1)N(Cc1cccc(I)c1)C(=O)CO2 [Example 40, 4-(3-Iodo-benzyl)-6-(4-oxo-2-thioxo-thiazolidin-5-ylidenemethyl)-4H-1,4-benzoxazin-3-one]
0.013	O=C1NC(=S)SC1=Cc1ccc2c(c1)N(Cc1cccc(OCc3ccccc3)c1)C(=O)CO2 [Example 15, 4-(3-Benzyloxy-benzyl)-6-(4-oxo-2-thioxo-thiazolidin-5-ylidenemethyl)-4H-1,4-benzoxazin-3-one]
0.012	CC(=O)OCc1cc(CN2C(=O)COc3ccc(C=C4SC(=S)NC4=O)cc32)cc(C(C)(C)C)c1 [Example 70, Acetic acid 3-tert-butyl-5-[3-oxo-6-(4-oxo-2-thioxo-thiazolidin-5-ylidenemethyl)-2,3-dihydro-1,4-benzoxazin-4-ylmethyl]-benzyl ester]
0.01	CC(C)(C)c1cc(CN2C(=O)COc3ccc(C=C4OC(=S)NC4=O)cc32)cc(C(C)(C)C)c1 [Example 247, 4-(3,5-Di-tert-butyl-benzyl)-6-(4-oxo-2-thioxo-oxazolidin-5-ylidenemethyl)-4H-1,4-benzoxazin-3-one]
0.009	CC(C)(O)c1cc(CN2C(=O)COc3c(F)cc(C=C4SC(=S)NC4=O)cc32)ccc1Cl [Example 331, 4-[4-Chloro-3-(1-hydroxy-1-methyl-ethyl)-benzyl]-8-fluoro-6-(4-oxo-2-thioxo-thiazolidin-5-ylidenemethyl)-4H-1,4-benzoxazin-3-one; Compound with Ethane-1,2-diamine]
0.008	Cc1cc(C)cc(CN2C(=O)COc3c(F)cc(C=C4SC(=S)NC4=O)cc32)c1 [Example 69, 4-(3,5-Dimethyl-benzyl)-8-fluoro-6-(4-oxo-2-thioxo-thiazolidin-5-ylidenemethyl)-4H-1,4-benzoxazin-3-one]
0.008	O=C1NC(=S)SC1=Cc1ccc2c(c1)N(Cc1ccc3ncccc3c1)C(=O)CO2 [Example 337, 6-(4-Oxo-2-thioxo-thiazolidin-5-ylidenemethyl)-4-quinolin-6-ylmethyl-4H-1,4-benzoxazin-3-one]
0.005	COc1ccc(CCCN2C(=O)COc3ccc(C=C4SC(=S)NC4=O)cc32)cc1 [Example 122, 4-[3-(4-Methoxy-phenyl)-propyl]-6-(4-oxo-2-thioxo-thiazolidin-5-ylidenemethyl)-4H-benzo[1,4]oxazin-3-one]
0.005	O=C1NC(=O)C(=Cc2ccc3c(c2)N(Cc2cccc(Oc4ccccc4F)c2)C(=O)CO3)S1 [Example 307]
0.005	O=C1NC(=S)SC1=Cc1cc(F)c2c(c1)N(Cc1ccc(Cl)s1)C(=O)CO2 [Example 319, 4-(5-Chloro-thiophen-2-ylmethyl)-8-fluoro-6-(4-oxo-2-thioxo-thiazolidin-5-ylidenemethyl)-4H-benzo[1,4]oxazin-3-one]
0.004	COc1c(CN2C(=O)COc3ccc(C=C4SC(=S)NC4=O)cc32)cccc1C(C)C [Example 260, 4-(3-Isopropyl-2-methoxy-benzyl)-6-(4-oxo-2-thioxo-thiazolidin-5-ylidenemethyl)-4H-1,4-benzoxazin-3-one]
0.003	CC(C)(O)c1ccc(CN2C(=O)COc3c(F)cc(C=C4SC(=S)NC4=O)cc32)cc1 [Example 294, 8-Fluoro-4-[4-(1-hydroxy-1-methyl-ethyl)-benzyl]-6-(4-oxo-2-thioxo-thiazolidin-5-ylidenemethyl)-4H-benzo[1,4]oxazin-3-one]
0.001	O=C1NC(=O)C(=Cc2cc(F)c3c(c2)N(Cc2ccc(F)cc2)C(=O)CO3)S1 [Example 298, 5-[8-Fluoro-4-(4-fluoro-benzyl)-3-oxo-3,4-dihydro-2H-benzo[1,4]oxazin-6-ylmethylene]-thiazolidine-2,4-dione]
